Non-standard residues stand in square brackets, D forms with d. No end group written: not given here. Cha = N[C@@H](CC1CCCCC1)C(=O)O
Assays:
[1] = test system: plasma; assay: Blood coagulation test (aPTT), normal plasma; conditions: peptide solution mixed with plasma, 37° C., control without peptides around 40 seconds
Protocol: In one embodiment, an application of the peptide-based hemostatic material in the present disclosure to the bleeding wound produces a coagulation time of less than 40 seconds. The coagulation time of normal plasma (without self-assembling peptides) and plasma with IVZK (SEQ ID NO. 2) or IVFK (SEQ ID NO. 1) hydrogels as initiators for clot formation was compared using a partial thromboplastin time (aPTT) test. The hemostatic properties of the peptides were evaluated by measuring the coagulation time after mixing the peptide solution with plasma. […] The coagulation time of the control (without self-assembling peptides) was around 40 seconds, which is within the normal range.
The aPTT test was performed in a coagulation meter MC 10 PLUS (MERLIN® Medical, Germany). First, 100 μL of plasma was incubated at 37° C., followed by adding 100 μL of a-PTT reagent. Then, the plasma-reagent mixture was incubated at 37° C. for 5 minutes (activation time). Finally, 100 μL of pre-warmed […] calcium chloride was added and time clot formation was recorded. In experimental group, 150 μL of plasma was pre-warmed and then 150 μL of peptide solution was added and the time was recorded. Each test was conducted at least three times.

[2] = Determination of gelation time by coagulation meter; assay type: physicochemical; conditions: for gelation time, effect of temperature: 37° C. versus 25° C., FIGS. 1 and 2; for onset of gelation: different temperatures, different concentrations, FIGS. 3 and 4
Protocol: In one embodiment, the nanofiber formation of the self-assembling peptides is affected by concentration of the peptide solution (Luo, Z., S. Wang, and S. Zhang, Fabrication of self-assembling D-form peptide nanofiber scaffold d-EAK16 for rapid hemostasis. Biomaterials, 2011. 32(8): p. 2013-2020). The gelation time of different peptides at various concentrations was recorded using a coagulation meter. FIGS. 1 and 2 illustrate the gelation time of two peptides with different concentrations at two different temperatures (25° C., 37° C.). As shown in both FIGS. 1 and 2, as the concentration of peptide increases, the required time for gelation decreases.
In one embodiment, the peptide gelation is impacted by temperature. […] This effect can be explained by the increasing of kinetic energy which is helps in bond formation within molecules enabling the peptide solution to form gels faster at 37° C. than at 25° C.
In one embodiment, the gelation time is impacted by temperature.
In this study, onset of gelation was assessed using coagulation meter MC 10 PLUS (MERLIN® Medical, Germany). The peptide solution at different concentrations was used and checked under various conditions. For the coagulation experiment, 300 μl of peptide solution was added into a tube and placed in the preheated position for 50 seconds before adding 30 μl of PBS. The time at which the gel formed was then recorded. The temperature was chosen in advance and all solutions were incubated at the desired temperature before conducting the measurements.

[3] = test system: Human platelets; assay: Surface coating and platelet adhesion; assay type: cell-based; conditions: fluorescence microscopy images, FIG. 23; for platelet adhesion: coated surface
From the text: In one embodiment, the self-assembling peptides induce platelet adhenrance. In a preferred embodiment, the self-assembling peptides induce more platelet adhenrance than collagen. One important factor for accelerating blood coagulation could be by promoting the recruitment and adherence of platelets to the site of injury as these processes play a critical role in primary hemostasis (O'Shaughnessy, D. and R. Gill, 19 Cardiothoracic surgery. Practical Hemostasis and Thrombosis, 2009: p. 194). Therefore, platelet adherence induced by peptide hydrogels, type I collagen (positive control), and bovine serum albumin (BSA) (negative comtrol) was tested and compared. […] The scale bar in FIG. 23 is 100 μm. […] The level of platelet adhesion induced by peptide hydrogels, type I collagen (positive control) was also quantified, as shown in FIG. 24. According to FIG. 24, the level of platelet adhesion induced by peptide hydrogels is even higher than that of collagen. […] Therefore, our peptides induced platelet adhesion, a process that may help trigger the coagulation system.
The procedure was done as described previously (Chen, C., et al., Hydrogelation of the short self-assembling peptide 13QGK regulated by transglutaminase and use for rapid hemostasis. ACS applied materials & interfaces, 2016. 8(28): p. 17833-17841). Briefly, for surface coating. 200 μL of 6 mM IVFK (SEQ ID NO. 1), 6 mM IVZK (SEQ ID NO. 2), 0.5% (w/v), BSA (PBS, pH 7.4), and 0.01 mg/mL type I collagen (PBS, pH 7.4) solutions were added to the wells of a 96-well black plate and incubated at 4° C. for 24 h. The wells were washed three times with PBS after removing these solutions. Human platelets were isolated from whole human blood containing anticoagulant sodium citrate (0.38%, w/v) as described previously(Chen, C., et al., Hydrogelation of the short self-assembling peptide 13QGK regulated by transglutaminase and use for rapid hemostasis. ACS applied materials & interfaces, 2016. 8(28): p. 17833-17841). The blood collection was approved by IBEC (18IBEC143). Briefly, platelet-rich plasma (PRP) was collected by centrifugation at 200×g for 20 min at 25° C. Then, PRP was diluted at a 1:1 ratio with PBS and subjected to second centrifugation at 800×g for 12 min at 25° C. The isolated platelets were washed three times with Tyrode's buffer (Hepes 20 mM, glucose […], BSA 1 mg/mL, NaH2PO4 3.3 mM, NaCl 137 mM, KCl 2.7 mM), followed by staining with calcein-AM (1 μg/mL) for 30 min in the dark at room temperature to stained platelets. After washing twice with PBS, the stained platelets were added into the coated wells and incubated for 1 h at 37° C. Subsequently, the supernatants were removed, and the unbound platelets were discarded by washing three times with PBS. The fluorescence of adherent platelets was measured by fluorescence microscopy.

Substance | coagulation (clotting) time [1] | gelation time, effect of temperature [2] | onset of gelation [2] | platelet adhesion [3] | level of platelet adhesion relative to collagen (positive control) [3]
IVFK: tetrameric self-assembling ultrashort peptide IVFK (SEQ ID NO. 1), forms nanofibrous hydrogel | around 5 seconds | faster gelation at 37 °C | occurs faster with the increase of temperature | considerable platelet adhesion | comparable to that on the surface of collagen
IVZK: tetrameric self-assembling ultrashort peptide IVZK (SEQ ID NO. 2), forms nanofibrous hydrogel (IV[Cha]K) | around 5 seconds | faster gelation at 37 °C | occurs faster with the increase of temperature | considerable platelet adhesion | comparable to that on the surface of collagen
bovine serum albumin [BSA, reference compound] | – | – | – | little platelet adhesion | –

Source: patent US20240261465A1, “METHOD OF STOPPING BLEEDING USING NANOFIBROUS PEPTIDE HYDROGELS AS HEMOSTASIS AGENT” (KING ABDULLAH UNIVERSITY OF SCIENCE AND TECHNOLOGY, priority 2021, published 2024)
